Test system: aconitine-induced ventricular arrhythmias
Test: aconitine test in rats (antiarrhythmic activity)
Assay type: in vivo, male rats
Method: The principle of the technique rests on the time required for inducing ventricular arrhythmias with aconitine slowly perfused in rats. An antiarrhythmic substance delays the appearance of the arrhythmia, and this delay is proportional to the activity of the substance.
Groups of 5 male rats are used. Individual anaesthetisation is carried out (10% urethane: 1 g/kg/ip) to permit catheterisation of the vein of the penis. The electrocardiogram is recorded. At time T=O, the substance studied is injected as an aqueous solution, in the proportion of 2.5 ml of solution per kg, in the course of 30 seconds. At time T=60 seconds, or 30 seconds after completing the injection, aconitine is perfused at the rate of 20 μg per minute until […] extrasystoles appear. The perfusion time of the aconitine is noted. The results are expressed as an ED50, i.e. the dose of the product under test in mg/kg which increases by 50% the perfusion time of aconitine relative to control animals.

Row | Compound | ED50 (dose which increases by 50% the perfusion time of aconitine relative to control animals) | ED50 (Rattus norvegicus, iv, read-out: ED50 (dose which increases by 50% the perfusion time of aconitine relative to control animals))
1 | O=C(CCC1CCNCC1)c1ccc2ccccc2c1 [Example 1, 1-(2-Naphthyl)-3-(4-piperidyl)-1-propanone] | 4 mg/kg i.v. | 
2 | O=C(CCC1CCNCC1)c1cccc2ccccc12 [Example 2, 1-(1-Naphthyl)-3-(4-piperidyl)-1-propanone] | 3.8 mg/kg i.v. | 
3 | CC(C)(C)c1nc(C(O)CCC2CCNCC2)c2ccccc2n1 (stereo not drawn) [Example 8, 1[2-(1,1-Dimethylethyl)-4-quinazolinyl]-3-(4-piperidyl)-1-propanol] | 1 mg/kg i.v. | 
4 | COc1cc2ccnc(C(=O)CCC3CCNCC3)c2cc1OC [Example 3, 1-(6,7-Dimethoxy-1-isoquinolyl)-3-(4-piperidyl)-1-propanone] | 2.1 mg/kg i.v. | 
5 | OC(CCC1CCNCC1)c1cccc2ccccc12 (stereo not drawn) [Example 5, 1-(1-Naphthyl)-3-(4-piperidyl)-1-propanol] | 1.42 mg/kg i.v. | 
6 | C=C[C@H]1C[N@@]2CC[C@H]1C[C@@H]2[C@@H](O)c1ccnc2ccc(OC)cc12 [Quinidine, reference compound] | 7.5 mg/kg i.v. | 
7 | OC(CCC1CCNCC1)c1nccc2ccccc12 (stereo not drawn) [Example 6, 1-(1-Isoquinolyl)-3-(4-piperidyl)-1-propanol] | 2.7 mg/kg i.v. | 
8 | COc1cc2ccnc(C(O)CCC3CCNCC3)c2cc1OC (stereo not drawn) [Example 7, 1-(6,7-Dimethoxy-1-isoquinolyl)-3-(4-piperidyl)-1-propanol] | 2.5 mg/kg i.v. | 
9 | NC(CCC1CCNCC1)c1ccc2ccccc2c1 (stereo not drawn) [Example 9, 1-(2-Naphthyl)-3-(4-piperidyl)-1-propanamine] |  | < 0.3 mg/kg

— US4665076A, “Pharmacologically active piperidine derivatives and their use” (Rhone-Poulenc Sante, priority 1984, dated 1987)
